{"source": "paper PMC4434572", "about": "“Identification of novel drugs to target dormant micrometastases” (BMC Cancer, 2015)", "key": {"4T1 Luc2-GFP cells": {"system": "4T1 Luc2-GFP cells", "assay": "Orthotopic 4T1 syngeneic model of triple-negative breast cancer with natural lung metastasis", "format": "in vivo, BALB/c mice", "protocol": "4T1 Luc2-GFP cells (PerkinElmer, Waltham, MA) were cultured in DMEM high glucose media with 2 mM pyruvate, 2 mM glutamine, 2 % Pen/Strep and 10 % Cosmic Calf Serum (Mediatech, Manassas, VA). To prepare cells for injection they were removed from flasks, counted using the TC10 counting system (BioRad, Hercules, CA) and checked for viability. Cells were then washed with PBS, pelleted and taken up at a concentration of 75,000 cells/ml; 100 μl of cell suspension (7,500 cells) was injected subcutaneously (bevel side up) into mammary fat pad #4 of 8 weeks old female BALB/c mice (NCI National Laboratory Frederick/Charles River animal production program). All animals were weighed and tumors were measured using calipers three times weekly. Beginning one week after implantation, which is when micrometastatic cells begin to arrive in the lungs, animals were treated three times per week with intraperitoneal DT310 or DT320 at their NOAEL dose of 75 mg/kg three times week dissolved in saline or by osmotic pump. The osmotic pumps (Alzet #2004) delivered an NOAEL dose of 23.4 and 26.7 μg/h of DT310 and DT320, respectively, for 4 weeks and were implanted as directed subcutaneously posterior to scapulae. Docetaxel was delivered once weekly intraperitoneally at its MTD of 15 mg/kg and doxorubicin delivered once weekly at its MTD of 1 mg/kg in 5 % N-Methyl-2-pyrrolidone, 5 % Solutol HS, and 90 % saline. GFP positive cells were imaged with excitation of GFP emission using a Leica Model Z16 APO fluorescence microscope equipped for a wide field, a large depth of field and 0.57–9.2X zoom capability. GFP-positive objects were counted and scored as to whether they were […], clumps of less than ten cells without a visible vasculature, as determined by co-injection of tetramethylrhodamine labeled dextran (2 million MW)."}, "MDA-MB-435 cells": {"system": "MDA-MB-435 cells", "assay": "Western blot of protein levels after treatment", "format": "cell-based", "protocol": "Protein content of selected proteins identified by reversed phase protein array (see supplementary materials) as being involved mechanistically in the response to DT320 was assayed by Western blot as described using the following antibodies. The following antibodies were purchased from Cell Signaling Technology (Beverly, MA) and diluted per manufacturer’s directions: Rabbit mAb Anti-Phospho-AKT (Ser473) (D9E) XP® #4060, Rabbit mAb anti-p38 MAPK (D13E1) XP® #8690, Mouse mAb anti-Phospho-SAPK/JNK (Thr183/Tyr185) (G9) #9255, Rabbit mAb anti-Phospho-CHK1 (Ser345) (133D3) #2348, Rabbit polyclonal anti-Phospho-CHK2 (Thr68) Antibody #2661, Rabbit polyclonal anti-BAX Antibody #2772, Rabbit polyclonal anti-Vinculin Antibody #4650, Mouse mAb anti-Cyclin D1 (DCS6) #2926, Rabbit mAb anti-Cyclin E2 (D52F9) b #3741, […], Mouse mAb anti-Cyclin B1 (V152) #4135, Rabbit mAb anti-cleaved PARP (Asp214) (D64E10) XP® #5625, Rabbit mAb anti-cleaved Caspase-3 (Asp175) (5A1E) #9654, Rabbit mAb anti-Nanog (D73G4), #4903; Rabbit mAb anti-Oct4 (C52G3) #2890; and Rabbit mAb anti-Sox2 (D6D9) #3579. Specificity of each antibody is illustrated on the company’s web page. For negative controls, pre-immune rabbit IgG was used. No signal was detected in the control IgG samples. No intensities or contrast were modified, but the appropriate bands were cut out using PhotoShop to prepare composite gel images.\nTo elucidate the mechanism of DT310 and DT320, cell cycle analysis and Western blotting was performed. The proteins for Western blot were selected from preliminary results using reverse phase protein array (RPPA) for DT320 and DT321 treated MDA-MB-435 and T24 cells. […] Proteins within these clusters showing the largest differences in protein expression and that were related to known anticancer drug action were confirmed by Western blot. Docetaxel was used as a positive control because it is known to induce a cell cycle arrest and apoptosis signature."}, "in vivo": {"assay": "in vivo", "details": "BALB/c, mouse, ip"}, "[1]": {"system": "protein tyrosine phosphatase (PTP)", "design": "method as in PMID 9575179", "details": "cited from earlier work"}, "[2]": {"system": "cancer cells on SISgel or plastic", "assay": "Activity of leads and analogs on cancer cells grown on plastic vs SISgel (cell line not stated)", "format": "cell-based", "protocol": "The NCI library is no longer available in the form used here, but how it was constructed is described (http://dtp.nci.nih.gov/branches/dscb/diversity_explanation.html). The ChemBridge library is a subset (Set Code NM1024) of the full 50,000 compound library (http://www.chembridge.com/screening_libraries/diversity_libraries/). Compounds were diluted to 100 μM before use. SISgel was prepared as described previously from powdered porcine small intestine submucosa obtained from Cook Biotech (W. Lafayette, IN). It is a natural product that is used extensively in tissue engineering as a bioscaffold. J82 bladder cancer cells and other cell lines were obtained from the ATCC (Bethesda, MD). […] Efficacy in vitro was assessed by plating 30,000 cells in 50 μL of high glucose DMEM with penicillin-streptomycin and 10 % fetal calf serum on SISgel in a 96-well plate containing 50 μL of gelled SISgel per well. Cells were allowed to attach and assume the SISgel phenotype for 48 h. A matching plate without SISgel was prepared 24 h later by pipetting 3,000 cells in 100 μL of high glucose DMEM with penicillin-streptomycin and 10 % fetal calf serum into each well of 96 well plate. The cells were allowed to attach and grow for 24 h. […] The cells were exposed to drug in fresh medium for 48 h, at which time the cell number was determined using the CFDA-AM cellular esterase proliferation assay (cat. #C1354, Life Technologies). For screening the results are reported as the ratio of cell count of cells on the plastic surface to the cell count on SISgel. An initial difference of 1.5 fold identified potential hits. All potential hits were confirmed in triplicate. […] Data were analyzed using nonlinear regression to a sigmoid curve with Prism 4 (GraphPad Software, Inc., LaJolla, CA). […]"}, "MDA-MB-435-GFP cells": {"system": "MDA-MB-435-GFP cells", "assay": "Flank xenograft model of ECM-suppressed cells co-injected with SISgel", "format": "in vivo, nu/nu mice", "details": "75 mg/kg twice weekly; 6 flanks", "protocol": "The efficacy of DT320 was assessed using a flank xenograft model of ECM-suppressed cancer cells that we developed, as well as an orthotopic model of “triple-negative” breast cancer. All animal protocols were reviewed and approved by the OUHSC Institutional Animal Care and Use Committee according to criteria established by the NIH Office of Laboratory Animal Welfare, and animals were housed 5 per cage with enrichment (tubes) and wood chips in the AALAC-accredited OUHSC Animal Facility with a 12 h light/dark cycle. Animals had access to water and food ad libatum. Animals were monitored daily by trained facility personnel. In the flank model, GFP-labeled cells were co-injected with SISgel, which produces a suppressed, normalized phenotype that persists after the SISgel is resorbed, but which can re-emerge into active tumor growth after 30–60 days. Animals were all female nu/nu mice (NCI National Laboratory Frederick/Charles River animal production program). An optimized number of 5 × 10^5 GFP-labeled MDA-MB-435 cells in 100 μL DMEM medium, without additives, were mixed with 100 μL of SISgel and were kept on ice until injection to prevent polymerization of the SISgel. […] The cells injected into the flanks remained as a non-growing spot, as assessed by fluorometry of the spots and the lack of mitoses seen in tissue sections, for about 3–5 weeks before some began resuming malignant growth. […]"}, "Capan-1 (pancreatic)": {"system": "Capan-1 (pancreatic)", "assay": "Proliferation EC50 on SISgel vs monolayer", "format": "cell-based", "details": "Homo sapiens, n = 6-8", "text": "(§1) The libraries were obtained from the NCI (Diversity Library I) comprised of 2,918 compounds and a 10,000 compound diversity library from ChemBridge, Inc. (DiverSet-EXP). The NCI library is no longer available in the form used here, but how it was constructed is described (http://dtp.nci.nih.gov/branches/dscb/diversity_explanation.html). The ChemBridge library is a subset (Set Code NM1024) of the full 50,000 compound library (http://www.chembridge.com/screening_libraries/diversity_libraries/). Compounds were diluted to 100 μM before use. SISgel was prepared as described previously from powdered porcine small intestine submucosa obtained from Cook Biotech (W. Lafayette, IN). It is a natural product that is used extensively in tissue engineering as a bioscaffold. J82 bladder cancer cells and other cell lines were obtained from the ATCC (Bethesda, MD). The basic principle is that cells grown on any ECM are, in general, expected to show higher resistance to anticancer compounds than when grown on plastic. Therefore, compounds that show a higher activity toward cancer cells on a normal ECM than on a plastic surface would be candidates to target suppressed, micrometastatic cells. Efficacy in vitro was assessed by plating 30,000 cells in 50 μL of high glucose DMEM with penicillin-streptomycin and 10 % fetal calf serum on SISgel in a 96-well plate containing 50 μL of gelled SISgel per well. Cells were allowed to attach and assume the SISgel phenotype for 48 h. A matching plate without SISgel was prepared 24 h later by pipetting 3,000 cells in 100 μL of high glucose DMEM with penicillin-streptomycin and 10 % fetal calf serum into each well of 96 well plate. The cells were allowed to attach and grow for 24 h. These numbers of cells gave approximately equal replication rates at the time drug was added for cells grown on the plastic surface or SISgel as determined by the fraction of S-phase cells identified by flow cytometry. The cells were exposed to drug in fresh medium for 48 h, at which time the cell number was determined using the CFDA-AM cellular esterase proliferation assay (cat. #C1354, Life Technologies). For screening the results are reported as the ratio of cell count of cells on the plastic surface to the cell count on SISgel. An initial difference of 1.5 fold identified potential hits. All potential hits were confirmed in triplicate. Those compounds that replicated were confirmed by a full dose–response study yielding an EC50 using five wells per drug concentration. Data were analyzed using nonlinear regression to a sigmoid curve with Prism 4 (GraphPad Software, Inc., LaJolla, CA). Potential hits that were confirmed by dose–response using J82 were also tested with MDA-MB-435 breast cancer, PC-3 metastatic prostate cancer, Capan1 pancreatic cancer and the J82 bladder cancer cell lines."}, "J82 (bladder)": {"system": "J82 (bladder)", "assay": "Proliferation EC50 on SISgel vs monolayer", "format": "cell-based", "details": "n = 6-8", "text": "as §1"}}, "note": "Entries after “also recorded” stand apart in the source; their conditions may differ. Like-named read-outs stand apart in the source and are kept apart here.", "data": [{"smiles": "CC(=O)O[C@@]12CO[C@@H]1C[C@H](O)[C@@]1(C)C(=O)[C@H](O)C3=C(C)[C@@H](OC(=O)[C@H](O)[C@@H](NC(=O)OC(C)(C)C)c4ccccc4)C[C@@](O)([C@@H](OC(=O)c4ccccc4)[C@H]21)C3(C)C", "note": "[docetaxel]", "values": [{"measurement": "primary tumor growth", "setting": "4T1 Luc2-GFP cells; administered i.p. at MTD", "result": "little effect"}, {"measurement": "number of large multicellular micrometastases and vascularized macrometastases to the lung", "setting": "4T1 Luc2-GFP cells; i.p. or osmotic pump", "result": "only minimal effects"}, {"measurement": "CHK1 expression", "setting": "MDA-MB-435 cells", "result": "neither of the DT compounds nor docetaxel induced CHK1"}, {"measurement": "Cyclin A1 (CCNA1) expression", "setting": "MDA-MB-435 cells", "result": "sharply down-regulate"}, {"measurement": "Cyclin D1 (CCND1) expression", "setting": "MDA-MB-435 cells", "result": "down-regulated"}, {"measurement": "cyclin B1 (CCNB1) expression", "setting": "MDA-MB-435 cells", "result": "down-regulated"}, {"measurement": "pSAP/JNK expression", "setting": "MDA-MB-435 cells", "result": "not"}, {"measurement": "pAKT expression", "setting": "MDA-MB-435 cells; 24 h", "result": "did not"}, {"measurement": "MTD", "setting": "in vivo", "result": 15, "unit": "mg/kg"}]}, {"smiles": "Cc1ccc(C(=O)Nc2ccc(S(=O)(=O)O)c3cc(S(=O)(=O)O)cc(S(=O)(=O)O)c23)cc1NC(=O)c1cccc(NC(=O)Nc2cccc(C(=O)Nc3cc(C(=O)Nc4ccc(S(=O)(=O)O)c5cc(S(=O)(=O)O)cc(S(=O)(=O)O)c45)ccc3C)c2)c1", "note": "[Suramin, reference compound]", "values": [{"measurement": "PTP inhibition", "setting": "[1]", "result": "potent"}, {"measurement": "SR", "setting": "[2]; ratio IC50-p/IC50-S", "result": 1.4}, {"measurement": "IC50", "setting": "[2]; read-out: IC50-S", "result": 226, "unit": "µM"}, {"measurement": "IC50", "setting": "[2]; read-out: IC50-p", "result": 321, "unit": "µM"}]}, {"smiles": "Nc1ccn([C@@H]2O[C@H](CO)[C@@H](O)C2(F)F)c(=O)n1", "note": "[gemcitabine, reference compound]", "values": [{"measurement": "response of suppressed flank xenografts", "setting": "MDA-MB-435-GFP cells", "result": "no response in all six flank xenografts; also recorded: remained present"}, {"measurement": "EC50", "setting": "Capan-1 (pancreatic); Capan-1 monolayer, read-out: EC50 Monolayer", "result": "78.2 ± 9.8", "unit": "µM"}, {"measurement": "EC50", "setting": "Capan-1 (pancreatic); Capan-1 on SISgel, read-out: EC50 SISgel", "result": "83.1 ± 10.7", "unit": "µM"}]}, {"smiles": "N.N.[Cl][Pt][Cl]", "note": "[cisplatin, reference compound]", "values": [{"measurement": "EC50", "setting": "J82 (bladder); J82 monolayer, read-out: EC50 Monolayer", "result": "102 ± 10.2", "unit": "µM"}, {"measurement": "EC50", "setting": "J82 (bladder); J82 on SISgel, read-out: EC50 SISgel", "result": "> 300", "unit": "µM"}]}]}
